Measured values as given in US10344032B2, “Agents for treating neurogenic inflammation and neuropathic hyperalgesia related disorders” (PÉCSI TUDOMÁNYEGYETEM, priority 2014, dated 2019).

Tests used:
[1] = Analgesic and anti-inflammatory models shown within the examples; conditions: in vivo
[2] = target: T1, sst4 receptor (Homo sapiens, UniProt P31391); assay: Somatostatin sst4 receptor-coupled G-protein activation assay ([35S]GTPγS binding); assay type: biochemical; conditions: 100 nM concentration; membrane fractions of CHO cells stably expressing the sst4 receptor; percentage over specific binding in absence of agonists
T1 construct: expressed in transfected cells
Source text: [^35S]GTPγS binding assay is a functional test determining agonist-induced and receptor-mediated G-protein activation which is based on the increase in guanine nucleotide exchange at G-proteins upon agonist stimulation. The interaction of a G protein-coupled receptor (GPCR) with the G protein is the first step in the transduction of the receptor binding signal to the activation of the second-messenger systems. We measured the level of [^35S]-GTPγS bound to the α subunit of G proteins and determined the efficacy of the compounds. Compounds which elicited 200% [^35S]GTPγS binding in nanomolar concentration were considered effective agonist. The examined compounds were added into the medium in 1 nM, 10 nM, 100 nM 1 μM and 10 μM concentrations.
Membrane fractions were prepared from CHO cells stably expressing the sst4 receptor in Tris-EGTA buffer (50 mM Tris-HCl, 1 mM EGTA, 3 mM MgCl2, 100 mM NaCl, pH 7.4). These membrane fractions (˜10 μg of protein/sample) were incubated at 30° C. for 60 min in the same Tris-EGTA buffer containing [^35S]GTPγS (0.05 nM) and increasing concentrations (10^−9 to 10^−5 M) of test compounds in the presence of 30 μM GDP in a final volume of 500 μl. Non-specific binding was determined in the presence of 10 μM unlabelled GTPγS. Total binding was measured in the absence of test compounds. To calculate the specific binding, non-specific binding was subtracted from total binding. The reaction was terminated by filtrating the samples through Whatman GF/B glass fiber filters. Using 48-well Slot Blot Manifold from Cleaver Scientific filters were washed three times with ice-cold 50 mM Tris-HCl buffer (pH 7.4). After drying for 60 min at 37° C., radioactivity was measured in scintillation liquid in a Packard Tri-Carb 2800 TR scintillation counter. Test compound-induced G-protein stimulation was given as percentage over the specific [^35S]GTPγS binding observed in the absence of agonists.

[3] = system: rat; assay: Plantar incision-induced heat allodynia (increasing temperature water bath), postoperative pain model; assay type: in vivo; conditions: 100 μg/kg p.o., measured 60 min later; one day after plantar incision
Protocol: Rats were anaesthesized with sodium-pentobarbital (Euthasol, 40 mg/kg i.p.) and a 1 cm longitudinal incision was made through the skin, fascia and muscle of the plantar aspect of the hindpaw. Significant decrease of both the thermonociceptive and mechanonociceptive thresholds (heat and mechanical allodynia) of the paw develops 1 day after this procedure.
One hundred and forty five (145) female Wistar rats (150-250 g) kept in the Animal House of the University of Pecs in a temperature-controlled room provided with a 12-hour light-dark cycle, standard rat chow and water ad libitum were used in this experimental series. […] Touch sensitivity was measured with a dynamic plantar aesthesiometer (DPA) and the thermonociceptive threshold was determined with an increasing temperature water-bath (ITWB) on the same rats (see below). […] Test compounds were administered p.o. and post-dose touch sensitivity and thermonociceptive thresholds were measured 60 min later. […]
b) The thermonociceptive threshold of the paw was determined with an increasing temperature water bath developed and validated in our laboratories in cooperation with Experimetria Ltd. (Budapest, Hungary). […] The controlling unit has a 30° C. starting temperature, heating rate and a display continuously showing the actual bath temperature measured by a thermocouple at the middle position 35 mm below the water level. […]

T1 sequence (P31391 whole entry): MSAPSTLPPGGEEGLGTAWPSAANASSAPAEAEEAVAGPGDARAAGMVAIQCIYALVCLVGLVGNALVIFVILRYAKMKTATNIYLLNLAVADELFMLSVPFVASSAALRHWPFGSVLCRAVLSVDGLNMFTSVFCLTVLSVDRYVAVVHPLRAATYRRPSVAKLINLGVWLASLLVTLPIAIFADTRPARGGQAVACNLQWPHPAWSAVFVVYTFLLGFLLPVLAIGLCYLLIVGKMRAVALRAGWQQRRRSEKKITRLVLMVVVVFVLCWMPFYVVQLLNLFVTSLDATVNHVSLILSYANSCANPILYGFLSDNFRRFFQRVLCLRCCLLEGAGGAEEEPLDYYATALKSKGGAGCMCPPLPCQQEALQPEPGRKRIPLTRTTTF

SMILES: COc1ccc(CCNc2ncnc3c2cc(C)n3Cc2ccc(OC)c(OC)c2)cc1OC [compound (a)]
- activity in the analgesic and anti-inflammatory models [1]: totally inactive

SMILES: CC(=O)Nc1ccc(CCNc2ncnc3c2c(C)c(C)n3Cc2ccccc2)cc1 [Example 3, N-{4-[2-(7-Benzyl-5,6-dimethyl-7H-pyrrolo[2,3-d]pyrimidin-4-ylamino)-ethyl]-phenyl}-acetamide]
- [35S]GTPγS binding (G-protein activation) [2]: 210.67%
- effectiveness in inhibiting the decrease of the heat threshold [3]: 18.2%
- melting point: 186.9 to 187.7 °C
